Measurements published in PMC7816197 (Journal of Medicinal Chemistry, 2020).
Values belong to the compound of their own block, whether it stands above or below them.

How the values were obtained:
human NAPE-PLD = human NAPE-PLD (Homo sapiens, UniProt Q6IQ20); assay: NAPE-PLD PED6 surrogate substrate activity assay; format: biochemical; conditions: for fold increase in potency/activity: compared to 2; for fold drop in potency: compared to hit 2; for inhibitory activity in words: PED6 assay, human NAPE-PLD
human NAPE-PLD, sequence (Q6IQ20 whole entry): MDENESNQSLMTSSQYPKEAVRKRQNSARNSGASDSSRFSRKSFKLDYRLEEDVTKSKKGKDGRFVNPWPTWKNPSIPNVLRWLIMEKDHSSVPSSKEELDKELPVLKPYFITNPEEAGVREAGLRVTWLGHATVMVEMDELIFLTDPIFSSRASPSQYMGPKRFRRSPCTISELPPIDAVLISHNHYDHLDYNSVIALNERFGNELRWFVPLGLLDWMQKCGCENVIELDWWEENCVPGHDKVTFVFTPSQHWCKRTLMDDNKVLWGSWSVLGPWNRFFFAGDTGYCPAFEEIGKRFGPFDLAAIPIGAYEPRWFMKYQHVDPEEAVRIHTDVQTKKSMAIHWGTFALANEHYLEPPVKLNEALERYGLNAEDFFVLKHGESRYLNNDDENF

HEK293 cells = conditions: cited from earlier work
Neuro-2a cells = conditions: cited from earlier work
[1] = system: brains of freely moving mice; conditions: cited from earlier work
[2] = not suited for in vivo use; cited from earlier work

Structure (SMILES): O=c1[nH]c(=O)c2cc(S(=O)(=O)Nc3ccc(-c4ccncc4)cc3)ccc2[nH]1 [ARN19874]
IC50 (human NAPE-PLD): 54 µM
NAE levels (HEK293 cells): did not affect
NAPE levels (HEK293 cells): increase

Structure (SMILES): O=C(NCC1CC1)c1cc(N2CC[C@H](O)C2)nc(N2CCC[C@@H](c3ccccc3)C2)n1 [Compound 1, N-(Cyclopropylmethyl)-6-((S)-3-hydroxypyrrolidin-1-yl)-2-((S)-3-phenylpiperidin-1-yl)pyrimidine-4-carboxamide]
turnover of PED6 (human NAPE-PLD; at a dose of 10 μM, full efficacy): completely blocked
fold increase in potency/activity (human NAPE-PLD): 10 fold
NAE levels including anandamide (Neuro-2a cells): reduced
anandamide levels in mouse brain ([1]; 30 mg/kg, intraperitoneal injection): decreased
NAE levels including anandamide ([1]; brains of freely moving mice): reduced

Structure (SMILES): CC(C)CNC(=O)c1cc(N2CCOCC2)nc(N(C)CCc2ccccc2)n1 [Compound 15, N-Isobutyl-2-(methyl(phenethyl)amino)-6-morpholinopyrimidine-4-carboxamide]
fold drop in potency (human NAPE-PLD): 10 fold

Structure (SMILES): CN(CCc1ccccc1)c1nc(NC(=O)CC2CC2)cc(N2CCOCC2)n1 [Compound 30, 2-Cyclopropyl-N-(2-(methyl(phenethyl)amino)-6-morpholinopyrimidin-4-yl)acetamide]
fold drop in potency (human NAPE-PLD): 10 fold

Structure (SMILES): CN(CCc1ccccc1)c1nc(C(=O)NCC2CC2)cc(N2CCCC(F)(F)C2)n1 [Compound 72, N-(Cyclopropylmethyl)-6-(3,3-difluoropiperidin-1-yl)-2-(methyl(phenethyl)amino)pyrimidine-4-carboxamide]
fold increase in potency/activity (human NAPE-PLD): 2 fold

Structure (SMILES): CN(C)c1cc(C(=O)NCC2CC2)nc(N(C)CCc2ccccc2)n1 [Compound 81, N-(Cyclopropylmethyl)-6-(dimethylamino)-2-(methyl(phenethyl)amino)pyrimidine-4-carboxamide]
fold increase in potency/activity (human NAPE-PLD): 2 fold

Structure (SMILES): O=C(NCC1CC1)c1cc(N2CC[C@@H](O)C2)nc(N2CCC[C@H](c3ccccc3)C2)n1 [Compound 107, N-(Cyclopropylmethyl)-6-((R)-3-hydroxypyrrolidin-1-yl)-2-((R)-3-phenylpiperidin-1-yl)pyrimidine-4-carboxamide]
fold-reduced activity (human NAPE-PLD; (R,R) enantiomer compared to 1): 3 fold

Structure (SMILES): Oc1c(Cl)cc(Cl)c(Cl)c1Cc1c(O)c(Cl)cc(Cl)c1Cl [hexachlorophene]
neurotoxicity [2]: neurotoxic effects

Structure (SMILES): C[C@H](CCC(=O)O)[C@H]1CC[C@H]2[C@@H]3CC[C@@H]4C[C@H](O)CC[C@]4(C)[C@H]3CC[C@]12C [lithocholic acid, reference compound]
inhibitory activity in words (human NAPE-PLD): not active

Results, then the compound that gave them:

fold increase in potency/activity (human NAPE-PLD): 2 fold
Structure (SMILES): O=C(NCC1CC1)c1cc(N2CCOCC2)nc(N2CCCC(c3ccccc3)C2)n1 (racemic) [Compound 62, (±)-N-(Cyclopropylmethyl)-6-morpholino-2-(3-phenylpiperidin-1-yl)pyrimidine-4-carboxamide]

fold increase in potency/activity (human NAPE-PLD): 2 fold
Structure (SMILES): O=C(NCC1CC1)c1cc(N2CCOCC2)nc(N2CCCC2Cc2ccccc2)n1 (racemic) [Compound 63, (±)-2-(2-Benzylpyrrolidin-1-yl)-N-(cyclopropylmethyl)-6-morpholinopyrimidine-4-carboxamide]

fold drop in potency (human NAPE-PLD): 10 fold
Structure (SMILES): CN(CCc1ccccc1)c1cc(N2CCOCC2)cc(C(=O)NCC2CC2)n1 [Compound 3, N-(Cyclopropylmethyl)-6-(methyl(phenethyl)amino)-4-morpholino-picolinamide]

inhibitory activity in words (human NAPE-PLD): completely inactive
Structure (SMILES): CN(CCc1ccccc1)c1nc(C(=O)NCC2CC2)nc(N2CCOCC2)n1 [Compound 6, N-(Cyclopropylmethyl)-4-(methyl(phenethyl)amino)-6-morpholino-1,3,5-triazine-2-carboxamide]

inhibitory activity in words (human NAPE-PLD): complete loss of potency
Structure (SMILES): CN(CC1CC1)C(=O)c1cc(N2CCOCC2)nc(N(C)CCc2ccccc2)n1 [Compound 7, N-(Cyclopropylmethyl)-N-methyl-2-(methyl(phenethyl)amino)-6-morpholinopyrimidine-4-carboxamide]

inhibitory activity in words (human NAPE-PLD): inactive
Structure (SMILES): O=C(NCC1CC1)c1cc(N2CCOCC2)nc(Cl)n1 [Compound 31, 2-Chloro-N-(cyclopropylmethyl)-6-morpholinopyrimidine-4-carboxamide]

inhibitory activity in words (human NAPE-PLD): inactive
Structure (SMILES): O=C(NCC1CC1)c1cc(N2CCOCC2)ncn1 [Compound 32, N-(Cyclopropylmethyl)-6-morpholinopyrimidine-4-carboxamide]

fold increase in potency/activity (human NAPE-PLD): 2 fold
Structure (SMILES): CC(C)N(CCc1ccccc1)c1nc(C(=O)NCC2CC2)cc(N2CCOCC2)n1 [Compound 55, N-(Cyclopropylmethyl)-2-(isopropyl(phenethyl)amino)-6-morpholinopyrimidine-4-carboxamide]

fold increase in potency/activity (human NAPE-PLD): ~4 fold
Structure (SMILES): CN(CCc1ccccc1)c1nc(C(=O)NCC2CC2)cc(N2CCCC2)n1 [Compound 87, N-(Cyclopropylmethyl)-2-(methyl(phenethyl)amino)-6-(pyrrolidin-1-yl)pyrimidine-4-carboxamide]
